The assay relates to NF-κB target genes. In words: LPS-induced acute inflammation, qRT-PCR of NF-κB target genes in lung and liver. The format is in vivo, mouse. As for the experimental part:
Fig 6 Newly identified NBD mimetics suppress LPS-induced acute inflammation in vivo. (A) The bioavailability property of SR12460, SR12343, SR12454, and SR11481. Concentrations of NBD mimetics were determined in plasma, brain, muscle, spleen, and liver 2 h post a single i.p. injection of 10 mg/kg of drugs; n = 3 per group. (B) Shown is the model to induce LPS-mediated acute inflammation and the treatment regimen with NBD mimetics. Mouse image via http://www.clker.com/clipart-mice-blank.html (copyright-free). (C) NBD mimetics suppressed LPS-induced acute inflammation in liver and lung by down-regulating NF-κB target gene expression. Vehicle, SR12343, SR12460, and 8K-NBD peptide were dosed at 10 mg/kg 30 min prior to the LPS treatment. Acute inflammation was induced by i.p. injection of 10 mg/kg LPS. Lung and liver were collected 2–4 h post injection, and mRNA was extracted for qRT-PCR analysis. (D, E) Western blot analysis was performed to probe for the expression of p-IκBα and COX-2 at protein level in liver and lung tissues. (F) Serum levels of IL-6 were determine by ELISA. n = 3–8 each group. *P < 0.05, **P < 0.01. Underlying data can be found in S1 Data. COX-2, cyclooxygenase 2; IL-6, interleukin 6; i.p., intraperitoneal; LPS, lipopolysaccharide; NBD, NEMO-binding domain; n.d., nondetectable; NEMO, NF-κB essential modulator; NF-κB, nuclear factor κB; qRT-PCR, quantitative real-time polymerase chain reaction. TEXT PRINTED IN THE PICTURE: (A) SR11481: Concentration (ng/ml): n.d. (plasma)
To determine their NF-κB inhibitory effects in vivo, SR12343 and SR12460 were tested in an acute model of LPS-induced systemic endotoxemia. C57BL/6J mice were pretreated with vehicle control, 8K-NBD peptide, or NBD mimetics at 10 mg/kg for 30 min, followed by LPS induction at 10 mg/kg (Fig 6B). Lung and liver were harvested 2–4 h post treatment for qRT-PCR analysis of NF-κB target genes. […] Despite lower plasma and tissue concentrations of SR12343 compared to SR12460, its inhibition of NF-κB/IKK in liver and lung were greater than that of SR12460 (Fig 6C). Similarly, acute treatment with SR12343 also affected the LPS-induced expression of NF-κB target genes at protein level. The extent of phosphorylation of IκBα and the levels of COX-2 were reduced in lung and liver tissues treated with SR12343 (Fig 6D and 6E). […] However, no significant differences in lung histopathology were observed. Finally, there was a slight reduction in the number of white blood cells and neutrophils in the SR12343-treated group (Table 2).
LPS (strain O111:B4) was prepared in PBS at a sublethal dose of 10 mg/kg. Female WT mice 8 to 10 wk old (20–30 g) were dosed by i.p. injection with vehicle, NBD peptide (10 mg/kg), or small molecules (10 mg/kg) for 30 min, followed by i.p. injection of saline (1 mL/kg) or LPS (10 mg/kg). Mice were euthanized 2 to 4 h post treatment, and lung and liver tissues were collected for further analysis.
Snap-frozen tissues were preserved in RNAlater RNA stabilization solution (ThermoFisher). Total RNA was extracted from cells or tissues by using TRIZOL reagent (Life Technologies), and 1,500 ng of mRNA was subjected to synthesis of cDNA using SuperScript VILO cDNA synthesis kit. qRT-PCR was performed in a StepOnePlus Real-Time PCR system using Platinum SYBR Green qPCR SuperMix-UDG (ThermoFisher). Target gene expression was calculated using the comparative CT method (ΔΔCT) by normalizing to an internal control gene Actb (β-actin). […]
For orientation: In qPCR the cycle at which signal appears reflects the starting amount.

The mark [1] stands for this setting: Fig 6C, 10 mg/kg 30 min before LPS 10 mg/kg i.p., 2-4 h, single mice.

Several values for one entry are separate records, joined by “and”; a condition that tells them apart may be missing. Identical values can stand only once.

`O=C(CNCCc1cc(F)cc(F)c1)Nc1ccc(Cl)cn1` [SR12460]: under setting [1], the “iNOS mRNA in lung (qRT-PCR, relative to vehicle)” value is 0.4025 and 0.5396 and 0.4809 and 0.7846 and 0.6512 and 0.5854 and 0.4587 and 0.5387; the “ikBa mRNA in lung (qRT-PCR, relative to vehicle)” value is 0.8864 and 1.179 and 0.7265 and 0.7577 and 0.6496 and 0.9355 and 0.7819.

Turning to `O=C(CNc1ccc(Cl)cn1)NCCc1cccc(Br)c1` [SR12343], the “NF-κB transcriptional activity in lung (iNOS, IκBα, COX-2, IL-6)” value (10 mg/kg, LPS 10 mg/kg) was “significantly inhibit”. Also, under setting [1], the “ikBa mRNA in liver (qRT-PCR, relative to vehicle)” value was 1.072 and 1.242 and 1.317 and 1.467 and 0.7748 and 0.7346 and 1.371; the “ikBa mRNA in lung (qRT-PCR, relative to vehicle)” value was 0.8689 and 0.6292 and 0.6865 and 0.9681 and 0.6797 and 1.015 and 0.7177.
